The subject of data set [1] is Peritoneal macrophage. The data set can be described thus: Cytotoxicity against BALB/c mouse peritoneal macrophage assessed as cell proliferation at 20 ug for 48 hrs by MTT assay. The class given is toxicity, cell-based. To be noted: dose 20 µg.
In data set [2] the target is Nucleotide-binding oligomerization domain-containing protein 2 (Homo sapiens) (UniProt Q9HC29). The data set can be described thus: Binding affinity to NOD2 in HEK-Blue hNOD2 cells by measuring secreted alkaline phosphatase into culture supernatant at 20 ug measured after 24 hrs by HEK-Blue detection method. To be noted: filed as agonist, dose 20.0 µg. Format: cell-based.
Sequence of Nucleotide-binding oligomerization domain-containing protein 2 (Homo sapiens) (Q9HC29 whole entry, the tested form may be a part): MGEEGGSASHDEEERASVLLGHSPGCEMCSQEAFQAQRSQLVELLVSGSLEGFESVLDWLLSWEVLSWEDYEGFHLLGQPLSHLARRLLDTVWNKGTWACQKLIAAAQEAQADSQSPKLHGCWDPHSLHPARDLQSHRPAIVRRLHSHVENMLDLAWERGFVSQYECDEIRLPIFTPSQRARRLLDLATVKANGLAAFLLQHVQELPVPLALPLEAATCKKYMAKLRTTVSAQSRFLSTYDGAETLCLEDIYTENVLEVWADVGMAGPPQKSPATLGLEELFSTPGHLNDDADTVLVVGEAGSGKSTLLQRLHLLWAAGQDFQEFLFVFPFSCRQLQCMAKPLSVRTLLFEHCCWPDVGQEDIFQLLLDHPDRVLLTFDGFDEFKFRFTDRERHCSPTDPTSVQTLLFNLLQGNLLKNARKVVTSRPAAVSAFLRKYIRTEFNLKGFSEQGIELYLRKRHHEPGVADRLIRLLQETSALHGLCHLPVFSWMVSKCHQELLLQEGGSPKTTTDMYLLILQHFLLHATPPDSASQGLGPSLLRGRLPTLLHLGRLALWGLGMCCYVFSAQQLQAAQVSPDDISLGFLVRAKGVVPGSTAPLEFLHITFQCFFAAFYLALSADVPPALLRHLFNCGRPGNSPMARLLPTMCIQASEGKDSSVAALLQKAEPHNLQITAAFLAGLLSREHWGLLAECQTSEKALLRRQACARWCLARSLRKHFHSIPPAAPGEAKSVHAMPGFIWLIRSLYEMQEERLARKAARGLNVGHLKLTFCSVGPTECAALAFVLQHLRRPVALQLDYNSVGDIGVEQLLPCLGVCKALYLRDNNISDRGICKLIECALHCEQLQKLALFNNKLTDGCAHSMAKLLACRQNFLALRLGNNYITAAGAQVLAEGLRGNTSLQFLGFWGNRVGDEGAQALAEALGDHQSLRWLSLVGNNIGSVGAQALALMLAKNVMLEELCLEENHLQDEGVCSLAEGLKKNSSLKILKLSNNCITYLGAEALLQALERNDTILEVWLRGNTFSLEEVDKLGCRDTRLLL

Data set [3] is described as follows: Induction of mouse spleen dendritic cells activation at 20 ug for 24 hrs relative to control. Format: functional, Dendritic cell. To be noted: dose 20 µg.
Data set [4] is described as follows: Induction of BALB/c mouse peritoneal macrophage activation by measuring TNF-alpha level at 20 ug for 48 hrs by ELISA analysis. Format: functional. To be noted: dose 20 µg.
Data set [5] relates to Serum. The data set can be described thus: Induction of antibody titer production in immunized BALB/c mouse serum assessed as fold increase in IgG1 antibody titer at 20 ug for 28 days. The class given is functional. To be noted: dose 20 µg; time 28 day.
Data set [6] relates to Serum. Description: Induction of antibody titer production in immunized BALB/c mouse serum assessed as fold increase in IgG1 antibody titer at 30 ug for 28 days. The class given is functional. The settings on record: dose 30 µg; time 28 day.
The test system of data set [7] is Serum. The data set can be described thus: Induction of antibody titer production in immunized BALB/c mouse serum assessed as increase in IgG2a antibody titer at 10 to 30 ug for 28 days. The class given is functional, cell-free. To be noted: dose 10-30 µg, time 28.0 day.
Data set [8] concerns Serum. Description: Induction of antibody titer production in immunized BALB/c mouse serum assessed as increase in IgG1 antibody titer at 10 to 30 ug for 28 days. The class given is functional, cell-free. To be noted: dose 10-30 µg, time 28.0 day.
Data set [9] relates to CD4+ve Th. Description: Stimulation of CD4+ T helper cells in mouse spleen for 15 mins by auto- fluorescence based analysis. Format: functional, cell-based.
The subject of data set [10] is CD8-positive T cell. Description: Stimulation of […] in mouse spleen for 15 mins by auto- fluorescence based analysis. Format: functional, tissue-based. To be noted: dose 10-30 µg.
The test system of data set [11] is Splenocyte. The data set can be described thus: Cytotoxicity against mouse splenocyte incubated at 10 to 30 ug for 3 hrs in by MTT assay. The class given is toxicity, cell-based. The settings on record: dose 10-30 µg.
Data set [12] can be described thus: Cytotoxicity against BALB/c mouse peritoneal macrophage assessed as cell proliferation at 20 ug for 48 hrs by MTT assay relative to control. The class given is toxicity, cell-based. The settings on record: peritoneal macrophages, at 20 µg, read-out: Activity.
The test system of data set [13] is Serum. Description: Induction of antibody titer production in immunized BALB/c mouse serum assessed as increase in IgG2a antibody titer at 20 ug for 28 days. The class given is functional, cell-free. To be noted: dose 20.0 µg, time 28.0 day.
Data set [14] relates to Serum. Description: Induction of antibody titer production in immunized BALB/c mouse serum assessed as increase in IgG1 antibody titer at 20 ug for 28 days. The class given is functional, cell-free. The settings on record: dose 20.0 µg, time 28.0 day.
Data set [15] relates to CD4+ve Th. Description: Stimulation of CD4+ T helper cells in mouse spleen at 20 ug for 15 mins by auto- fluorescence based analysis. Format: functional, cell-based. To be noted: dose 20.0 µg.
Data set [16] has as its system CD8-positive T cell. Description: Stimulation of […] in mouse spleen at 20 ug for 15 mins by auto- fluorescence based analysis. The class given is functional, tissue-based. The settings on record: dose 20.0 µg.
Data set [17] concerns Splenocyte. Description: Upregulation of IL-1beta in Dengue virus recombinant antigen restimulated mouse splenocyte incubated at 30 ug for 48 hrs by ELISA anlaysis. The class given is functional, cell-based. The settings on record: dose 10-30 µg.
Data set [18] concerns Splenocyte. The data set can be described thus: Upregulation of IL-1beta in Dengue virus recombinant antigen restimulated mouse splenocyte incubated at 20 ug for 48 hrs by ELISA anlaysis. The class given is functional, cell-based. To be noted: dose 20.0 µg.

Active and inactive are the calls of the source. No cut-off for these calls is given here.

With `CC(=O)N[C@@H]1[C@@H](O[C@H](C)C(=O)N[C@@H](C)C(=O)N[C@H](CCC(=O)O)c2nnn(C3CCCCCC3)n2)[C@H](O)[C@@H](CO)O[C@@H]1O`, the Activity entry in [1] was “Non-Toxic”; in data set [3], 13%; in [4] it was 250 pg/mL. Also, the outcome in data set [2] was Active.

`CCCCn1nnc([C@@H](CCC(=O)O)NC(=O)[C@H](C)NC(=O)[C@@H](C)O[C@H]2[C@H](O)[C@@H](CO)O[C@H](O)[C@@H]2NC(C)=O)n1`: the Activity entry is “Non-Toxic” in data set [1]; 13% in data set [3]; “<=100 pg/ml” in data set [4]; “Dose-Dependent Effect” in [9]; “Dose-Dependent Effect” in data set [10]; “Non-Toxic” in data set [11]. The outcome in data set [2], in data set [7] and in [8] was Active. Also, the “fold change (FC)” value was determined as 8 in data set [5] and 11 in [6].

For `CCCCCCCCCCCCn1nnc([C@@H](CCC(=O)O)NC(=O)[C@H](C)NC(=O)[C@@H](C)O[C@H]2[C@H](O)[C@@H](CO)O[C@H](O)[C@@H]2NC(C)=O)n1`, the viability at 48 h, 20 ug in data set [12] was below 140%. Moreover, the Activity entry is “Non-Toxic” in [1], 13% in data set [3] and 250 pg/mL in [4]. Also, the result in data set [2] was Active.

For the molecule `CCCCCCCCCCCCCCCCCCn1nnc([C@@H](CCC(=O)O)NC(=O)[C@H](C)NC(=O)[C@@H](C)O[C@H]2[C@H](O)[C@@H](CO)O[C@H](O)[C@@H]2NC(C)=O)n1`, the Activity result in data set [1] was “Non-Toxic”; in data set [3], 13%; in data set [4], “<=100 pg/ml”. Also, the outcome in [2] was Active.

As for `CC(=O)N[C@H]1[C@@H](OCc2ccccc2)O[C@@H]2CO[C@@H](c3ccccc3)O[C@H]2[C@@H]1O[C@H](C)C(=O)N[C@@H](C)C(=O)N[C@H](CCC(=O)OCc1ccccc1)C(N)=O`, the Activity entry in [1] is “Non-Toxic”; in data set [3], 13%; in data set [11], “Toxic”. Further, the result in data set [2], in [13] and in data set [14] was Active. Besides, in data set [5], the “fold change (FC)” value turned out to be 7.

`CC(=O)N[C@@H]1[C@@H](O[C@H](C)C(=O)N[C@@H](C)C(=O)N[C@H](CCC(=O)O)c2nn[nH]n2)[C@H](O)[C@@H](CO)O[C@@H]1O`: the Activity entry in data set [1] is “Non-Toxic”; in [3] it was 13%; in [4] it was 250 pg/mL. The result in data set [2] was Active.

For the molecule `CCCCCCCCn1nnc([C@@H](CCC(=O)O)NC(=O)[C@H](C)NC(=O)[C@@H](C)O[C@H]2[C@H](O)[C@@H](CO)O[C@H](O)[C@@H]2NC(C)=O)n1`, the Activity result in data set [1] was “Non-Toxic”; in data set [3] it was 13%; in data set [4] it was “<=100 pg/ml”; in [11] it was “Non-Toxic”. The outcome in data set [2], in [7], in data set [8], in data set [17] and in data set [18] was Active. Further, in data set [5], the “fold change (FC)” value was found to be 11. Further, the result in data set [15] and in [16] was inactive.

(Values after ChEMBL document CHEMBL5352502, “Design, synthesis and biological evaluation of novel lipophilic 2, 5-disubstituted tetrazole analogues of muramyl dipeptide as NOD2 agonists” (Bioorg Med Chem, 2023).)
